# Reference: patent EP0312245A2, “Polycyclic compounds and pharmaceutical compositions thereof” (NORISTAN HOLDINGS LIMITED, priority 1987, dated 1989)
# Where two headings read alike, the source gives them in different places.
# Key:
# [1] = system: isolated rabbit ear preparation; assay: Rabbit ear perfusion test (adrenaline-induced tone, perfusion pressure)
# Procedure: Female New Zealand White rabbits (approximately 4kg) were anaesthetised with Sagatal ® (0.5ml/kg).
# The central ear artery was cannulated using a 20 G catheter and the ear cut off at its base. Heparinised (5ml, 200 IU;ml) Krebs bicarbonate solution was perfused through the ear to expel the blood. The ear was placed in a warming jacket at 37°C and attached via the arterial catheter to the perfusion pump. Perfusion of the ear with aerated (95% 025% C02)Krebs bicarbonate solution at 37° C was commenced at a rate of 6.5ml/min using a Watson Marlow peristaltic pump. The perfusion pressure was monitored continuously using a pressure transducer (Type 4-327-1221, Consoliated Electrodynamics) coupled to a Devices Recorder.
# Following an equilibration period of 15 minutes, increased tone was induced in the preparation by addition of adrenaline (1µg/ml) to the perfusion fluid.
# After a stable tone was observed, various concentrations of test compounds were injected into the perfusion fluid and examined for their effect on the perfusion pressure. The effect of vehicle (0.2ml, 50% Krebs 50% ethanol) was also tested on the ear preparation.
# [2] = system: guinea-pig papillary muscle; assay: Electrophysiological test: action potential of guinea-pig papillary muscle (microelectrode technique); details: for minimal effective concentration: Cavia porcellus; for TIME 1 (Shortest time needed to attain suppression) / TIME 2 (Shortest time needed for reversal of effect by washing out of compound): at the listed bath concentration; for DEGREE OF SUPPRESSION: suppression of action potential at the listed bath concentration
# Procedure: Electrophysiological studies were conducted on guinea-pig papillary muscle.
# Using a microelectrode technique, action potentials were measured from guinea-pig papillary muscles. Action potentials were evoked by electrical stimulation (platinum electrode, Grass S88 stimulator, 1 Hz stimulation frequency; voltage, 10% above threshold). […] The preparations were electrically driven (pacing intervals 1 s, duration 2-5 ms). Slow (Ca2+ mediated) action potentials were evoked in a depolarizing solution (22 mmol/l K and 5 mmol/I Ca^2+) at 0,35 Hz stimulation frequency in order to ensure complete removal of inactivation of slow inward current.
# [3] = system: spontaneously hypertensive rats (SHR ); assay: Antihypertensive test: mean arterial pressure in spontaneously hypertensive rats; format: in vivo, rat; details: statement in words
# Procedure: The effect of Compound 3 on the mean arterial pressure was determined on spontaneously hypertensive rats (SHR ) by means of direct pressure transducing. Groups of 6 male rats of mass 210-300g were used. The average of ten pressure determinations was used. Normotensive (BD-9) rats were used as animal controls, while normal saline solution (containing some traces of polyethylene glycol and ethanol to aid in the solution of the test compounds) was used as solvent and as solvent control.
# After verifying the mass of the animal, it was placed under general anaesthesia by administering 60mgikg pentobarbitone (Sagatal@) intraperitonially. The tracheal tube and carotid artery were both exposed by dissection. An intranule was introduced into the trachea as aid ventilation. The carolid artery was canalated and coupled to a pressure sensor. The sysolic, diastolic and mean arterial pressure were monitored via a Spacelab 514 patient monitor and registered on a Vitatek 551 plotter. During the experiment the exposed tissue of the rat was covered with guaze and kept damp with normal saline.
# The drugs and solvent controls were administered intravenously into the dorsal penile vein after stabilization of the blood pressure (BP) had occurred. After drug administration, the BP was recorded every 5 minutes for a period of 30 min.
# cardiac myocytes = assay: Calcium current blockade in cardiac myocytes (voltage clamp); format: cell-based, guinea-pig; details: voltage clamp experiments of cardiac myocytes
# Procedure: Ventricular myocytes were isolated from guinea-pig hearts by enzymatic dispersion of the cells using a method related to that employed by Mitra and Morad. After 5 minutes of perfusion at 37 °C on a Langendorff apparatus, the Tyrode solution was changed for a Ca-free solution for 5 minutes, after which the heart was perfused with a 40ml Ca-free solution containing 12mg collagenase (Type II, Sigma) and 10mg protease (Type XIV; Sigma). Perfusion with the soluticn containing enzymes was usually stopped within 5 minutes or as soon as dark areas appeared on the ventricles. The heart was then perfused with a Tyrode solution containing 0.8mM Ca for a few minutes, after which the ventricles were cut in small pieces and the isolated cells were shaken free in a 50ml beaker containing Tyrode solution.
# Tyrode solution containing 5.4 mM KCI; 1.8 mM CaC12; 0.5 mM MgClz; 137.6 mM NaCI; 5 mM glucose and 11.6 mM HEPES. The pH was adjusted to 7.4 with NaOH. […] No change in the pH of the Tyrode solution could be measured after this addition. […]
# Suction pipettes with resistance values between 2 and 5 MΩ were drawn from borosilicate glass (Jencons, H15/10) and heat polished. […] The results were recorded on magnetic tape or floppy disk. […] Calcium currents were measured as the difference between the maximum slow inward current and the current recorded after 400 ms.
smiles,measurement,setting,value
"CCCCCCCCNC12OC3C4C5CC(C6C5C3C61)C42 (racemic) [Compound 3, 8-η-Octylamino-8,11-oxopentacyclo[5.4.0 .0^2,6.0^3,10.0^5,9]undecane]",inhibition at 0.01 mg,"[1]; Oryctolagus cuniculus, Table 5, dose 10 µg, read-out: Mean % change in perfusion pressure",8.5%
same,inhibition at 0.0316 mg,"[1]; Oryctolagus cuniculus, Table 5, dose 31.6 µg, read-out: Mean % change in perfusion pressure",11.5%
same,inhibition at 0.1 mg,"[1]; Oryctolagus cuniculus, Table 5, dose 100 µg, read-out: Mean % change in perfusion pressure",16.5%
same,inhibition at 0.316 mg,"[1]; Oryctolagus cuniculus, Table 5, dose 316 µg, read-out: Mean % change in perfusion pressure",26%
same,inhibition at 1 mg,"[1]; Oryctolagus cuniculus, Table 5, dose 1000 µg, read-out: Mean % change in perfusion pressure",41%
same,inhibition at 0.01 mg,"[1]; Oryctolagus cuniculus, Table 6, dose 10 μg, read-out: Corrected mean % change in perfusion pressurre",5.5%
same,inhibition at 0.0316 mg,"[1]; Oryctolagus cuniculus, Table 6, dose 31.6 μg, read-out: Corrected mean % change in perfusion pressurre",5.5%
same,inhibition at 0.1 mg,"[1]; Oryctolagus cuniculus, Table 6, dose 100 μg, read-out: Corrected mean % change in perfusion pressurre",11.5%
same,inhibition at 0.316 mg,"[1]; Oryctolagus cuniculus, Table 6, dose 316 μg, read-out: Corrected mean % change in perfusion pressurre",20.5%
same,inhibition at 1 mg,"[1]; Oryctolagus cuniculus, Table 6, dose 1000 μg, read-out: Corrected mean % change in perfusion pressurre",34.5%
same,inhibition at 0.0316 mg,"[1]; Oryctolagus cuniculus, Table 7, dose 31.6 μg, read-out: Mean % change in perfusion pressure",9.4%
same,inhibition at 0.1 mg,"[1]; Oryctolagus cuniculus, Table 7, dose 100 μg, read-out: Mean % change in perfusion pressure",17.3%
same,inhibition at 0.316 mg,"[1]; Oryctolagus cuniculus, Table 7, dose 316 μg, read-out: Mean % change in perfusion pressure",24.7%
same,inhibition at 1 mg,"[1]; Oryctolagus cuniculus, Table 7, dose 1000 μg, read-out: Mean % change in perfusion pressure",28.9%
same,inhibition at 3.16 mg,"[1]; Oryctolagus cuniculus, Table 7, dose 3160 μg, read-out: Mean % change in perfusion pressure",27.6%
same,Mean time taken to return to pre-dose volume,"[1]; Table 5, dose 31.6 µg",1.75 min
same,Mean time taken to return to pre-dose volume,"[1]; Table 5, dose 100 µg",4.25 min
same,Mean time taken to return to pre-dose volume,"[1]; Table 5, dose 316 µg",5.5 min
same,Mean time taken to return to pre-dose volume,"[1]; Table 5, dose 1000 µg",8.75 min
same,Mean time to return to predose value,"[1]; Table 6, dose 100 μg",4.25 min
same,Mean time to return to predose value,"[1]; Table 6, dose 316 μg",7.0 min
same,Mean time to return to predose value,"[1]; Table 6, dose 1000 μg",10.5 min
same,Mean time taken to return to predose volume,"[1]; Table 7, dose 31.6 μg",6.3 min
same,Mean time taken to return to predose volume,"[1]; Table 7, dose 100 μg",6.3 min
same,Mean time taken to return to predose volume,"[1]; Table 7, dose 316 μg",8.5 min
same,Mean time taken to return to predose volume,"[1]; Table 7, dose 1000 μg",19.3 min
same,Mean time taken to return to predose volume,"[1]; Table 7, dose 3160 μg",15.0 min
same,minimal effective concentration,"[2]; read-out: BATH CONCENTRATION (Lowest concentration of the compound to induce suppression of action potential), Table 3, guinea-pig papillary muscle",62.5 µM
same,minimal effective concentration,"[2]; read-out: BATH CONCENTRATION (Lowest concentration of the compound to induce suppression of action potential), Table 4, racemates and optical isomers",62.5 µM
same,TIME 1 (Shortest time needed to attain suppression),[2]; Table 3,6 min
same,TIME 2 (Shortest time needed for reversal of effect by washing out of compound),[2]; Table 3,6 min
same,DEGREE OF SUPPRESSION,[2]; Table 3,complete
same,TIME 1 (Shortest time needed to attain suppression),[2]; Table 4,6 min
same,TIME 2 (Shortest time needed for reversal of effect by washing out of compound),[2]; Table 4,6 min
same,DEGREE OF SUPPRESSION,[2]; Table 4,complete
same,Antihypertensive activity,[3],Antihypertensive activity has also been obtained
same,block of the calcium current,cardiac myocytes,pronounced frequency dependent block
